In paper PMC7266154 (RNA, 2020):

Test system: protein synthesis in E. coli S30 extract
Assay type: biochemical, Escherichia coli
Conditions: read-out: IC50, inhibition of firefly luciferase synthesis, 37°C, 30 min, luciferase activity, three independent measurements

CC[C@H]1OC(=O)[C@H](C)[C@@H](O[C@H]2C[C@@](C)(OC)[C@@H](O)[C@H](C)O2)[C@H](C)[C@@H](O[C@@H]2O[C@H](C)C[C@H](N(C)C)[C@H]2O)[C@](C)(O)C[C@@H](C)[C@@H]2N[C@@H](COCCOC)O[C@H]([C@H]2C)[C@]1(C)O [DIR, dirithromycin]
IC50: 190 ± 20 nM

CC[C@H]1OC(=O)[C@H](C)[C@@H](O[C@H]2C[C@@](C)(OC)[C@@H](O)[C@H](C)O2)[C@H](C)[C@@H](O[C@@H]2O[C@H](C)C[C@H](N(C)C)[C@H]2O)[C@](C)(O)C[C@@H](C)C(=O)[C@H](C)[C@@H](O)[C@]1(C)O [ERY, erythromycin]
IC50: 320 ± 20 nM
